Key:
R15A = R15A (Homo sapiens, UniProt O75807); assay: R15A levels on immunoblots of HeLa cell lysates; format: cell-based; set-up: endogenous in cells; host or cells: HeLa; conditions: HeLa cells, Raphin1 10 μM
Protocol: (§1) HeLa or MEF cells (90,000 cells/mL) were plated in 12-well plates (1 mL/well). The following day cells were treated as indicated; the medium was removed, fresh medium containing compound added and incubated at 37°C for the times indicated. The time course was performed in reverse order to facilitate collecting all samples at the same time. At the end of treatment cells were washed two times with ice-cold PBS and lysed in 150 μL Laemmli Buffer. Lysates were transferred to 1.5 mL eppendorf tubes, boiled at 95°C for 5 min, sonicated and resolved on Bolt SDS-PAGE 4%–12% Bis-Tris gels (ThermoFisher Scientific). Proteins were transferred to the nitrocellulose membrane using the iBlot 2 system (ThermoFisher Scientific). Membrane was blocked in 5% skimmed milk for 30 min and then probed with primary antibodies followed by incubation with the appropriate horseradish peroxidase-conjugated secondary antibodies (Promega). Proteins were visualized using ECL Prime (GE Healthcare) and imaged in the Chemi-Smart 5000 (Vilber-Lourmat, France) or ChemiDoc Touch (BioRad). Bands were quantified using ImageJ (NIH, USA). […]

R15a −/− cells = assay: eIF2α phosphorylation and translation rates in R15a −/− MEF cells; format: cell-based, mouse; conditions: R15a −/− cells (genetic inactivation of R15A), 10 μM
Protocol: as §1
HeLa or MEF cells (90,000 cells/mL) were plated in 12-well plates (1 mL/well). […] The gels were then exposed to a Storage Phosphor Screen (GE Healthcare) and analyzed by phosphorimaging using a Typhoon Imager Scanner (GE Healthcare).

R15B-PP1c = molecular target: T1, R15B-PP1c (Homo sapiens, UniProt Q5SWA1); assay: Selective holophosphatase activity assay, eIF2α dephosphorylation by R15B-PP1c; format: biochemical; conditions: Raphin1 100 μM, 30°C, 16 hr
T1 construct: cDNAs encoding amino acids 325-636 of R15A and 340-698 of R15B were cloned into pMAL-c5x; made in house; host or cells: E. coli (R15 and eIF2α: BL21-Gold (DE3) pLysS; PP1: BL21/pGro7)
Protocol: The assay was performed as previously described ([Carrara et al., 2017]). Dephosphorylation experiments were carried out in dephosphorylation buffer (50 mM Tris pH 7.4, 1.5 mM EGTA pH 8.0, 2 mM MnCl2), and all proteins were diluted to the appropriate concentration in dephosphorylation buffer. PP1c was diluted to 10 nM, R15s were diluted to 50 nM and P-eIF2α was diluted to 1 μM. Proteins were mixed as appropriate, and Raphin1 at 100 μM or DMSO vehicle control were added. Reactions were incubated at 30°C for 16 hr. 4% SDS-Laemmli sample buffer was added to stop the reactions. Samples were loaded on 4%–12% NuPAGE Bis-Tris gels (ThermoFisher Scientific), diluted 1-fold, and analyzed by immunoblotting using anti-Phospho-eIF2α (Ser51) (Cell Signaling (#9721); […]) and total anti-eIF2α (AbCam (#ab26197); 1:1,000) antibodies.

wild-type mice = assay: Fear conditioning; format: in vivo, mouse; conditions: 2 mg/kg for 3 weeks
Protocol: Morris water maze and the following fear conditioning were performed on C57BL/6J wild-type males aged 2.5 months. Mice were treatment- and test-naive before the treatment started. Treatment with Raphin1 started two weeks before and was continued during the behavioral tests.
Testing was performed in polymodal operant chambers (Coulbourn Instruments, Allentown, PA, USA). Each chamber (18.5 × 18 × 21.5 cm) consisted of aluminum side walls and Plexiglas rear and front (the door) walls. A loudspeaker and a bright light constituted the sources of the cues during conditioning and cue-testing. The general activity of animals was recorded through the infrared cell placed at the ceiling of the chambers and was directly recorded using the Graphic State software (Coulbourn). For conditioning, mice were allowed to acclimate for 4 min, then a light/tone (10 kHz) – Conditioned Stimulus (CS) was presented for 20 s and co-terminated by a mild (1 s, 0.4 mA) footshock – an aversive Unconditioned Stimulus (US). Mice were returned to their home cages 2 min later. Testing was performed 24 hr following conditioning session. Testing for the context was performed in the morning. […] For both context and cue testing the percentage of time spent in the immobile position (% Freezing) was scored as an indicator of fear memory.

T1 sequence (Q5SWA1 340-698): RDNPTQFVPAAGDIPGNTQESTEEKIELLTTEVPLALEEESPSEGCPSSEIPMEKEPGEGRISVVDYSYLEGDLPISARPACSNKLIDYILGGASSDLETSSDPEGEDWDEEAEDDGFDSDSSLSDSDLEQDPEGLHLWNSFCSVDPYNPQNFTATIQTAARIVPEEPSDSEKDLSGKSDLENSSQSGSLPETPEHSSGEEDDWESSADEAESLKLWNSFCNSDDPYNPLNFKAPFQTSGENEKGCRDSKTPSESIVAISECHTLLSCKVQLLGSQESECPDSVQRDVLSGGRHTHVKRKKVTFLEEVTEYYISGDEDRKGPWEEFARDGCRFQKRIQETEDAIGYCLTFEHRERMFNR
T1 sequence (P62136 7-330 partner limits assumed): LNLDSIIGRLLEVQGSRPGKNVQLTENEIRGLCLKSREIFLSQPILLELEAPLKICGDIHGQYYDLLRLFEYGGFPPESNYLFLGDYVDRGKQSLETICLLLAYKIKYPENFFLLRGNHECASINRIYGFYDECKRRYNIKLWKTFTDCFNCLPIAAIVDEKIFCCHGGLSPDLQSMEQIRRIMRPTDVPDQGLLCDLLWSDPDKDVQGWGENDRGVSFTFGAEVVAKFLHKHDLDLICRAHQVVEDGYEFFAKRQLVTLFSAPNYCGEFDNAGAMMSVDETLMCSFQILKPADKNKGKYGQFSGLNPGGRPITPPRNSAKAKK
Chain of R15A (O75807 whole entry, stated change not applied): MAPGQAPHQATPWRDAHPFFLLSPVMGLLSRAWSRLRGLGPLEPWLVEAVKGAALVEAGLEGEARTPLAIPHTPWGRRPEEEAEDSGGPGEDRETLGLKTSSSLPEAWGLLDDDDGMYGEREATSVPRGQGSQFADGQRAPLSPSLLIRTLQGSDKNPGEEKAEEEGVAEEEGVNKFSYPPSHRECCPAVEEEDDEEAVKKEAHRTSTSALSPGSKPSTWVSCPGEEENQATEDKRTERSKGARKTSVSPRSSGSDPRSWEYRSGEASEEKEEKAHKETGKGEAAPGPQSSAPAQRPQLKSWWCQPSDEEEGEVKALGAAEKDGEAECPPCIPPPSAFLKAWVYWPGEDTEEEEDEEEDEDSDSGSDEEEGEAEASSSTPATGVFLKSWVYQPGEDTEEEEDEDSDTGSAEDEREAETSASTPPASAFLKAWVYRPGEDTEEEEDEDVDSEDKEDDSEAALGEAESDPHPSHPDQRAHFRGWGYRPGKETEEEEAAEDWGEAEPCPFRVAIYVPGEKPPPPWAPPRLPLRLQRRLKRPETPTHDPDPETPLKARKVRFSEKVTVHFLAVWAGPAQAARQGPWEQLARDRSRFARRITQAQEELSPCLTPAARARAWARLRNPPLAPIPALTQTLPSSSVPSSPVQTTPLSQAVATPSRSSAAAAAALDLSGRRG

## [H]/N=C(\N)NN=Cc1cccc(Cl)c1Cl [Raphin1, (E)-2-(2,3-dichlorobenzylidene)hydrazine-1-carboximidamide]
R15A
  R15A levels (decrease): not observed
R15a −/− cells
  Raphin1-induced eIF2α phosphorylation and translation attenuation: persisted
R15B-PP1c
  Dephosphorylation of eIF2α by R15B-PP1c: inhibited
wild-type mice
  Adverse effects on memory, fear-conditioning paradigm: no adverse effects
